Results from patent US20230130579A1, “REGULATION OF POST-ISCHEMIC INFLAMMATORY RESPONSE: A NOVEL FUNCTION OF TYROSINE PHOSPHATASE STEP” (UNM Rainforest Innovations, priority 2020, published 2023).

Key:
Type in all cases: cell-based
COX2 = COX2 protein level by immunoblot in glutamate-treated neuron cultures from STEP KO mice; settings: STEP KO mice neurons; 50 μM glutamate 20 min; post-glutamate time 2 h; MK801 5 μM, SB203580 5 μM, Bengamide B 500 nM, TAT-STEP-myc 4 μM
Method: Cell culture and stimulation: For cell culture studies adult WT male and female mice and STEP KO male and female mice were mated to generate timed pregnant female mice. The males were removed from the females after 24 h period, which was considered gestational day 1. Pregnancy was verified by the presence of vaginal plugs and/or weight gain. Primary neuronal cultures were obtained from 15-day-old mice embryos as described previously (Deep et al., 2019). Briefly, the striatum and the adjoining cortex was dissected, the tissue dissociated mechanically and resuspended in Dulbecco's modified Eagle's medium/F-12 (1:1) containing 5% fetal calf serum. Cells (6×10^6 cells/dish) were plated on poly-D-lysine-coated tissue culture dishes (BD Biosciences) and grown for 12-14 days at 37° C. in a humidified atmosphere (95:5% air:CO2 mixture). For receptor stimulation cells were treated with glutamate or NMDA for the indicated times and then processed for immunoblot analysis. Glycine concentration in the medium during glutamate treatment was 10 μM. […]
In a parallel series of experiments, we further evaluated the expression of COX2, which is involved in the conversion of AA to prostanoids. […] Cell lysates with equal amount of protein from each sample was analyzed by immunoblotting with anti-COX2 (upper panel) or anti-β-tubulin (lower panel) antibodies. Quantification of COX2 is represented as mean±SEM. *, indicates significant difference from untreated control in STEP KO cultures (p<0.05); ^¶, indicates significant difference from glutamate treated STEP KO cultures (p<0.05).
FIGS. 9A-9D show the role of NFκB activation in glutamate induced COX2 expression and PGE2 release. […] (FIG. 9A-C) Cell lysates with equal amount of protein from each sample was analyzed by immunoblotting with (FIG. 9A, B) anti-IκB-α (upper panel) and anti-β-tubulin (lower panel) antibodies, or (C) anti-COX-2 (upper panel) and anti-β-tubulin (lower panel) antibodies. […] (FIG. 9D) Equal amount of culture medium from each sample was analyzed for PGE2 levels using ELISA. […]

PGE2 = PGE2 release into culture medium by ELISA, glutamate-treated neuron cultures from STEP KO mice; settings: STEP KO mice neurons; 50 μM glutamate; 2 h; MK801 5 μM, SB203580 5 μM, CAY10404 100 nM, Bengamide B 500 nM
Method: Cell culture and stimulation: For cell culture studies adult WT male and female mice and STEP KO male and female mice were mated to generate timed pregnant female mice. The males were removed from the females after 24 h period, which was considered gestational day 1. Pregnancy was verified by the presence of vaginal plugs and/or weight gain. Primary neuronal cultures were obtained from 15-day-old mice embryos as described previously (Deep et al., 2019). Briefly, the striatum and the adjoining cortex was dissected, the tissue dissociated mechanically and resuspended in Dulbecco's modified Eagle's medium/F-12 (1:1) containing 5% fetal calf serum. Cells (6×10^6 cells/dish) were plated on poly-D-lysine-coated tissue culture dishes (BD Biosciences) and grown for 12-14 days at 37° C. in a humidified atmosphere (95:5% air:CO2 mixture). For receptor stimulation cells were treated with glutamate or NMDA for the indicated times and then processed for immunoblot analysis. Glycine concentration in the medium during glutamate treatment was 10 μM. In some experiments, DL-2-amino-5-phosphonopentanoic acid (APV, 200 μM), MK-801 (5 μM), SB203580 (5 μM), CAY10404 (100 nM) or Bengamide B (500 nM) were added […] 10 min before addition of glutamate. Some cultures were treated with the TAT-STEP-myc peptide (4 μM) prior glutamate treatment.
For measurement of PGE2 and soluble CX3CL1 levels released from neurons, culture medium was collected from each experimental plate and centrifuged at 200 g for 5 min to remove cellular debris. […] PGE2 level was assessed using the PGE2 enzyme-linked immunosorbent assay (ELISA) kit (Cat #: K051-H1) from Arbor assays (Ann Arbor, Mich., USA), according to the manufacturer's instructions. Soluble CX3CL1 level was assessed using the ELISA kit (Cat #: MCX310) from R&D systems (Minneapolis, Minn., USA), according to the manufacturer's instructions.
To evaluate the effect of STEP gene deletion on glutamate-mediated PGE2 release in subsequent studies neuron cultures from WT or STEP KO mice were treated with 50 μM glutamate (Glu) for 20 min and then maintained in its original medium for the specified times (post-glutamate time: 2 h and 4 h). […] Equal amount of culture medium from each sample was analyzed for PGE2 levels using ELISA. Values are expressed as mean±SEM. *, indicates significant difference from untreated control in STEP KO cultures (p<0.05); ^¶, indicates significant difference from glutamate treated STEP KO cultures (p<0.05). […]
FIGS. 9A-9D show the role of NFκB activation in glutamate induced COX2 expression and PGE2 release. […] Quantification of IκB-α and COX-2 are represented as mean±SEM. *, indicates significant difference from untreated control in STEP KO culture (p<0.05); ^¶, indicates significant difference from glutamate treated STEP KO culture. […]

IκB-α = experiment: IκB degradation (NF-κB activation) by immunoblot in glutamate-treated neuron cultures from STEP KO mice; settings: STEP KO mice neurons; 50 μM glutamate; 2 h
Method: (§1) Cell culture and stimulation: For cell culture studies adult WT male and female mice and STEP KO male and female mice were mated to generate timed pregnant female mice. The males were removed from the females after 24 h period, which was considered gestational day 1. Pregnancy was verified by the presence of vaginal plugs and/or weight gain. Primary neuronal cultures were obtained from 15-day-old mice embryos as described previously (Deep et al., 2019). Briefly, the striatum and the adjoining cortex was dissected, the tissue dissociated mechanically and resuspended in Dulbecco's modified Eagle's medium/F-12 (1:1) containing 5% fetal calf serum. […]
Earlier studies have shown that the nuclear factor kappa B (NF-κB) is a key regulator of COX2 expression in different cell types (Yamamoto et al., 1995; Kaltschmidt et al., 2002; Guo et al., 2013; Ackerman et al., 2008; Shi et al., 2015), and the ionotropic glutamate receptors is one of the activators of NF-κB in neurons (Kaltschmidt et al., 2005). To clarify the role of NF-κB in glutamate-NMDAR induced activation of the COX-2-PGE2 signaling pathway in STEP KO mice neurons, we next evaluated the effect of glutamate on IκB degradation, a seminal step in NF-κB activation (Karin and Ben-Neriah 2000; Rajagopal et al., 2019). […]

cPLA2 = cPLA2 activity assay in glutamate-treated neuron cultures from STEP KO mice; settings: STEP KO mice neurons; 50 μM glutamate 20 min; MK801 5 μM or SB 203580 5 μM; 2 h after the insult
Method: as §1
In FIG. 5A, neuron cultures from WT or STEP KO mice were treated with 50 μM glutamate (Glu) for 20 min and then maintained in its original medium for the specified time (2 h and 4 h). […] Cell lysates with equal amount of protein from each sample was analyzed for cPLA2 activity using enzymatic assay. Values are expressed as mean±SEM. *, indicates significant difference from untreated control in WT cultures (p<0.05); ^Δ, indicates significant difference from untreated control in STEP KO cultures (p<0.05); ^¶, significant difference from 20 min glutamate treatment in STEP KO cultures (p<0.05). […]

## CCCCCCCCCCCCCC(=O)O[C@H]1CC[C@H](NC(=O)[C@H](OC)[C@H](O)[C@@H](O)[C@H](O)/C=C/C(C)C)C(=O)N(C)C1 [Bengamide B]
COX2
  glutamate-induced increase in COX2 level: attenuated
PGE2
  glutamate-induced PGE2 release: significant reduction

## CS(=O)(=O)c1ccc(-c2noc(C(F)(F)F)c2-c2ccccc2)cc1 [CAY10404]
PGE2
  glutamate-induced PGE2 release: significantly reduced

## C[C@]12N[C@H](Cc3ccccc31)c1ccccc12 [MK801, MK-801]
IκB-α
  glutamate-induced IκB degradation: effectively blocked
cPLA2
  cPLA2 activity: significantly reduced
COX2
  glutamate-induced increase in COX2 level: attenuated
PGE2
  glutamate-induced PGE2 release: significantly reduced

## C[S+]([O-])c1ccc(-c2nc(-c3ccncc3)c(-c3ccc(F)cc3)[nH]2)cc1 (centres unmarked) [SB 203580, SB203580]
IκB-α
  glutamate-induced IκB degradation: effectively blocked
cPLA2
  cPLA2 activity: significantly reduced
COX2
  glutamate-induced increase in COX2 level: attenuated
PGE2
  glutamate-induced PGE2 release: significantly reduced
